Data taken from ChEMBL document CHEMBL1201862, “PubChem BioAssay data set” (2004).
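Values below derive from 48-hour exposures of cells grown in 96-well plates, with endpoints linearly interpolated between the two concentrations bracketing the appropriate inhibition level. At the GI50, growth is halved.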 Calls of active or inactive are those of the source. No stated cut-off is given here; in the data, active = GI50 up to about 1.1 µM and inactive = higher.

Assays:
Assay in all cases: DTP human tumour cell line panel, 48 h
[1] = system: A498
[2] = system: COLO 205
[3] = system: SK-MEL-5
[4] = system: SF-539
[5] = system: ACHN
[6] = system: SN12C
[7] = system: OVCAR-3
[8] = system: OVCAR-4
[9] = system: HCT-116
[10] = system: MOLT-4
[11] = system: SNB-19
[12] = system: SF-295
[13] = system: NCI-H23
[14] = system: HCC 2998
[15] = system: 786-0
[16] = system: HOP-62
[17] = system: Hs-578T
[18] = system: BT-549
[19] = system: OVCAR-8
[20] = system: HOP-92

Measured: GI50

COC(=O)c1ccccc1/C=C1\Cc2cc3c(cc2C1=O)CCC3
inactive: [1] 61.2 µM | [2] > 100 µM | [3] > 100 µM | [4] > 100 µM | [5] > 100 µM | [6] > 100 µM | [7] > 100 µM | [8] > 100 µM | [9] 45 µM | [10] > 100 µM | [11] > 100 µM | [12] 43.5 µM | [13] > 100 µM | [14] > 100 µM | [15] 38.4 µM | [16] 29.6 µM | [17] > 10 µM | [18] > 100 µM | [19] > 100 µM

CSc1ncc2c(n1)sc1c(=O)n(-c3ccccc3)cnc12
inactive: [1] > 100 µM | [2] > 100 µM | [3] > 100 µM | [5] > 100 µM | [6] > 100 µM | [7] > 100 µM | [8] > 100 µM | [9] > 100 µM | [10] > 100 µM | [11] > 100 µM | [12] > 100 µM | [13] > 100 µM | [14] > 100 µM | [15] > 100 µM | [16] > 100 µM | [17] > 100 µM | [18] > 100 µM | [19] > 100 µM | [20] > 100 µM

O=C(/N=C1/OC(CN2CCOCC2)CN1C(=O)Nc1ccccc1)Nc1ccccc1 (centres undefined)
inactive: [1] > 100 µM | [2] > 100 µM | [3] > 100 µM | [5] > 100 µM | [6] > 100 µM | [8] > 100 µM | [9] > 100 µM | [10] > 100 µM | [11] > 100 µM | [12] > 100 µM | [13] > 100 µM | [14] > 100 µM | [15] > 100 µM | [16] > 100 µM | [17] > 100 µM | [18] > 100 µM | [19] > 100 µM | [20] 94.6 µM

N#CC(C#N)=C(N)/C(C#N)=C/c1ccc2ccccc2n1
inactive: [1] > 100 µM | [3] 23.8 µM | [5] 17.2 µM | [6] 30.1 µM | [7] 13.5 µM | [8] 35.4 µM | [9] 15.1 µM | [10] 30.3 µM | [11] 24.3 µM | [12] 21.3 µM | [13] 31.6 µM | [14] 77.3 µM | [15] 17.9 µM | [16] 16 µM | [17] 21.7 µM | [18] 26.5 µM | [19] 30.5 µM | [20] 18.3 µM

C=CC[C@@H](N)C(=O)N(C)[C@@H](C)[C@@H](O)c1ccccc1
inactive: [1] > 100 µM | [2] > 100 µM | [3] > 100 µM | [4] > 100 µM | [5] > 100 µM | [7] > 100 µM | [8] > 100 µM | [9] > 100 µM | [10] > 100 µM | [11] > 100 µM | [12] > 100 µM | [13] > 100 µM | [15] > 100 µM | [16] > 100 µM | [17] > 100 µM | [18] > 100 µM | [19] > 100 µM | [20] 54.6 µM

Cc1ccc(NC(=O)COc2ccc(Cl)cc2)cc1Cl
inactive: [1] 45.3 µM | [2] > 100 µM | [3] > 100 µM | [4] 83.6 µM | [5] 42.7 µM | [6] 38.2 µM | [7] > 100 µM | [8] > 100 µM | [9] 14.4 µM | [10] > 100 µM | [11] 74.1 µM | [12] 50.5 µM | [13] 19.7 µM | [15] 44.5 µM | [16] 20 µM | [17] 14.2 µM | [18] 70.3 µM | [19] 28.9 µM | [20] 51.8 µM

CC(C)CNP(=O)(NCC(C)C)Oc1ccc(CC(NC(=O)OCc2ccccc2)C(=O)OCc2ccccc2)cc1 (centres undefined)
inactive: [1] 22.5 µM | [2] 19.2 µM | [3] 20.2 µM | [5] 16.9 µM | [6] 18.8 µM | [7] 3.68 µM | [8] 18.3 µM | [9] 18.7 µM | [10] 13.9 µM | [11] 25.2 µM | [12] 18.5 µM | [13] 15.3 µM | [14] 16.8 µM | [15] 13.6 µM | [16] 14.7 µM | [17] 28.4 µM | [18] 20.7 µM | [19] 17.3 µM | [20] 61.4 µM

c1ccc(COc2nc3cc(C45CC6CC(CC(C6)C4)C5)ccc3[nH]2)cc1
inactive: [1] 23.3 µM | [2] 4.01 µM | [3] 5.53 µM | [5] 14.6 µM | [6] 18.5 µM | [7] 22.9 µM | [8] > 31.3 µM | [9] 9.08 µM | [10] 3.35 µM | [11] 24.8 µM | [12] 6.7 µM | [13] 6.3 µM | [14] 9.68 µM | [15] 14.9 µM | [16] 24.4 µM | [17] 23 µM | [18] 19.8 µM | [19] 18 µM | [20] 7.29 µM

CC(C)(C)OC(=O)C1C(=O)NC(=O)CC1CC(OCc1ccccc1)C(COCc1ccccc1)OCc1ccccc1 (centres undefined)
inactive: [1] 26.5 µM | [3] 12.6 µM | [4] 10.9 µM | [5] 10.2 µM | [6] 25 µM | [8] 6.55 µM | [9] 5.36 µM | [10] 2.88 µM | [11] 20.6 µM | [12] 8.38 µM | [13] 10.1 µM | [14] 3.81 µM | [15] 6.79 µM | [17] 14 µM | [18] 5.48 µM | [19] 10.3 µM | [20] 11.9 µM

CCC(C(=O)c1cccs1)C(O)(C(F)(F)F)C(F)(F)F (centres undefined)
inactive: [1] > 100 µM | [2] > 100 µM | [3] > 100 µM | [4] > 100 µM | [5] > 100 µM | [6] > 100 µM | [7] > 100 µM | [8] > 100 µM | [9] > 100 µM | [10] > 100 µM | [11] > 100 µM | [12] > 100 µM | [13] > 100 µM | [15] > 100 µM | [16] > 100 µM | [17] > 100 µM | [18] > 100 µM | [19] > 100 µM | [20] > 100 µM

Cc1cccc(NC(=O)CCl)c1
inactive: [1] > 10 µM | [2] > 10 µM | [3] 7.71 µM | [4] 9.31 µM | [5] > 10 µM | [6] 7.67 µM | [7] 6.4 µM | [8] 3.29 µM | [9] 6.95 µM | [10] > 10 µM | [11] > 10 µM | [12] > 10 µM | [13] 4.26 µM | [14] > 10 µM | [15] 3.67 µM | [16] > 10 µM | [17] > 10 µM | [18] > 10 µM | [19] 9.53 µM

CCc1n[nH]c(=O)n1N1C(=O)C2CCCCC2C1=O (centres undefined)
inactive: [1] > 100 µM | [2] > 100 µM | [3] > 100 µM | [5] > 100 µM | [6] > 100 µM | [7] > 100 µM | [8] > 100 µM | [9] > 100 µM | [10] > 100 µM | [12] > 100 µM | [13] > 100 µM | [14] > 100 µM | [15] > 100 µM | [16] > 100 µM | [17] > 100 µM | [18] > 100 µM | [19] > 100 µM | [20] > 100 µM

CC(C)(OCc1ccccc1)c1ccccc1P(c1ccccc1)c1ccccc1
inactive: [1] 89.3 µM | [2] 27 µM | [3] 35 µM | [4] > 100 µM | [5] 44.8 µM | [6] 46 µM | [7] 46.9 µM | [8] 31.3 µM | [9] 40 µM | [10] 17.2 µM | [11] 69 µM | [12] 44.8 µM | [13] 21.7 µM | [15] 66.4 µM | [16] 60 µM | [17] 47.9 µM | [18] 28.8 µM | [19] 39.9 µM | [20] 35.2 µM

CC1=CCC(C)=Nc2nc3ccccc3n21
inactive: [1] > 100 µM | [2] > 100 µM | [3] > 100 µM | [4] > 100 µM | [5] > 100 µM | [6] > 100 µM | [7] > 100 µM | [8] > 100 µM | [9] > 100 µM | [10] > 100 µM | [11] > 100 µM | [12] > 100 µM | [13] > 100 µM | [15] > 100 µM | [16] > 100 µM | [17] > 100 µM | [18] > 100 µM | [19] > 100 µM | [20] > 100 µM

COc1cc(O)cc(/C=C/c2ccc(O)cc2)c1
inactive: [1] 33.1 µM | [2] > 100 µM | [3] 30.7 µM | [4] 35.6 µM | [5] 6.31 µM | [6] 27.5 µM | [7] 41.3 µM | [8] 44.6 µM | [9] 32 µM | [10] 36 µM | [11] 36.6 µM | [12] 25.7 µM | [13] 26.7 µM | [15] 29.6 µM | [16] 28.8 µM | [17] 44.7 µM | [18] 13.6 µM | [19] 23.8 µM | [20] 21.6 µM
